Values belong to the compound of their own block, whether it stands above or below them.
How the values were obtained:
[1] = system: human esophagus cancer KYSE 410 xenograft; assay: Growth of KYSE 410 xenograft subcutaneously transplanted in nude mouse; type: in vivo; settings: for Relative tumor proliferation rate T/C: 50 mg/kg p.o. once every day
Procedure: Well-developed tumors in nude mice were cut into 1.5 mm3 fragments and transplanted s.c. into the right flank of nude mice under sterile conditions. The diameters of subcutaneously transplanted tumours in nude mice were measured with a vernier calipe. When the tumour reached a volume 170 mm3, the mice were randomly assigned into two treatment groups: CYH33 50 mg/kg group or BYL-719 50 mg/kg group. Control groups were given the same amount of normal saline, and treatment groups received tested compounds (p.o). Compounds were administered orally once every day for 3 weeks. Evaluation index of antitumor activity was relative tumor proliferation rate T/C (%), the calculation formula of which was as follows: T/C (%)=(TRTV/CRTV)×100%, TRTV:RTV of treatment group; CRTV:RTV of negative control group.

KYSE30 = assay: Proliferation of human esophagus cancer cells; type: cell-based
Description: (§1) Compounds BYL719 (shown below), CYH33 (compound I-33) and I-27 were selected to test their activity on the proliferation of 11 species of human esophagus cancer cells.
(§2) The results reported in FIG. 3 were the average GI50 value and SD value of three experiments. The results were arranged according to the GI50 value of CYH33.

KYSE140 = assay: Proliferation of human esophagus cancer cells; type: cell-based
Description: as §1, §2

KYSE450 = assay: Proliferation of human esophagus cancer cells; type: cell-based
Description: as §1, §2

COLO680N = assay: Proliferation of human esophagus cancer cells; type: cell-based; settings: COLO-680N
Description: as §1, §2

KYSE150 = assay: Proliferation of human esophagus cancer cells; type: cell-based
Description: as §1, §2

Detroit 562 = assay: Proliferation of human esophagus cancer cells; type: cell-based
Description: as §1, §2

KYSE180 = assay: Proliferation of human esophagus cancer cells; type: cell-based
Description: as §1, §2

KYSE410 = assay: Proliferation of human esophagus cancer cells; type: cell-based
Description: as §1, §2

KYSE510 = assay: Proliferation of human esophagus cancer cells; type: cell-based
Description: as §1, §2

KYSE70 = assay: Proliferation of human esophagus cancer cells; type: cell-based
Description: as §1, §2

KYSE2 = assay: Proliferation of human esophagus cancer cells; type: cell-based
Description: as §1, §2

[2] = system: human rhabdomyosarcoma Rh30 cells; assay: Proliferation of Rh30 cells (sulforhodamine B); type: cell-based; settings: for IC50: Homo sapiens, Rh30, 72 h, read-out: IC50 against proliferation of Rh30 cells
Procedure: Rh30 cells were seeded in a 96-well plate at 3000 cells/well. After the cells adhered, tested compounds at concentration of 10, 3, 1, 0.3, or 0.1 μM were added, and incubated for 72 h. The culture media were discarded and cells were fixed with trichloroacetic acid. After washed with distilled water for five times and dried, sulfonylrhodamine B was added. After washed with 1% glacial acetic acid for five times and dried, trihydroxymethylaminomethane buffer was added. OD value was measured by using a microplate reader at a wavelength of 560 nm.

PI3Kα = PI3Kα (Homo sapiens (Human), UniProt P42336); assay: Inhibition on PI3K kinase activity (Kinase-Glo Plus luminescent assay); type: biochemical; settings: 2 μM ATP, 1 hour at room temperature
Procedure: The activity of purified kinase was detected with Kinase-Glo® Plus kinase luminescent assay by measuring the amount of the remaining […] in the solution after the kinase reaction was completed. […] After reaction was performed for 1 hour at room temperature, 10 μL of Kinase Glo-Plus mixture was added and incubated for 1 hour to quench the reaction.

[3] = KYSE-30, KYSE30, 1st experiment
[4] = KYSE-30, KYSE30, 2nd experiment
[5] = KYSE-30, KYSE30, 3rd experiment
[6] = KYSE-30, KYSE30, mean of three experiments
[7] = KYSE-140, KYSE140, 1st experiment
[8] = KYSE-140, KYSE140, 2nd experiment
[9] = KYSE-140, KYSE140, 3rd experiment
[10] = KYSE-140, KYSE140, mean of three experiments
[11] = KYSE-450, KYSE450, 1st experiment
[12] = KYSE-450, KYSE450, 2nd experiment
[13] = KYSE-450, KYSE450, 3rd experiment
[14] = KYSE-450, KYSE450, mean of three experiments
[15] = KYSE-150, KYSE150, 1st experiment
[16] = KYSE-150, KYSE150, 2nd experiment
[17] = KYSE-150, KYSE150, 3rd experiment
[18] = KYSE-150, KYSE150, mean of three experiments
[19] = Detroit 562, Detroit 562, 1st experiment
[20] = Detroit 562, Detroit 562, 2nd experiment
[21] = Detroit 562, Detroit 562, 3rd experiment
[22] = Detroit 562, Detroit 562, mean of three experiments
[23] = KYSE-180, KYSE180, 1st experiment
[24] = KYSE-180, KYSE180, 2nd experiment
[25] = KYSE-180, KYSE180, 3rd experiment
[26] = KYSE-180, KYSE180, mean of three experiments
[27] = KYSE-410, KYSE410, 1st experiment
[28] = KYSE-410, KYSE410, 2nd experiment
[29] = KYSE-410, KYSE410, 3rd experiment
[30] = KYSE-410, KYSE410, mean of three experiments
[31] = KYSE-510, KYSE510, 1st experiment
[32] = KYSE-510, KYSE510, 2nd experiment
[33] = KYSE-510, KYSE510, 3rd experiment
[34] = KYSE-510, KYSE510, mean of three experiments
[35] = KYSE-70, KYSE70, 1st experiment
[36] = KYSE-70, KYSE70, 2nd experiment
[37] = KYSE-70, KYSE70, 3rd experiment
[38] = KYSE-70, KYSE70, mean of three experiments
[39] = KYSE2, mean of three experiments

Chain of PI3Kα (P42336 whole entry): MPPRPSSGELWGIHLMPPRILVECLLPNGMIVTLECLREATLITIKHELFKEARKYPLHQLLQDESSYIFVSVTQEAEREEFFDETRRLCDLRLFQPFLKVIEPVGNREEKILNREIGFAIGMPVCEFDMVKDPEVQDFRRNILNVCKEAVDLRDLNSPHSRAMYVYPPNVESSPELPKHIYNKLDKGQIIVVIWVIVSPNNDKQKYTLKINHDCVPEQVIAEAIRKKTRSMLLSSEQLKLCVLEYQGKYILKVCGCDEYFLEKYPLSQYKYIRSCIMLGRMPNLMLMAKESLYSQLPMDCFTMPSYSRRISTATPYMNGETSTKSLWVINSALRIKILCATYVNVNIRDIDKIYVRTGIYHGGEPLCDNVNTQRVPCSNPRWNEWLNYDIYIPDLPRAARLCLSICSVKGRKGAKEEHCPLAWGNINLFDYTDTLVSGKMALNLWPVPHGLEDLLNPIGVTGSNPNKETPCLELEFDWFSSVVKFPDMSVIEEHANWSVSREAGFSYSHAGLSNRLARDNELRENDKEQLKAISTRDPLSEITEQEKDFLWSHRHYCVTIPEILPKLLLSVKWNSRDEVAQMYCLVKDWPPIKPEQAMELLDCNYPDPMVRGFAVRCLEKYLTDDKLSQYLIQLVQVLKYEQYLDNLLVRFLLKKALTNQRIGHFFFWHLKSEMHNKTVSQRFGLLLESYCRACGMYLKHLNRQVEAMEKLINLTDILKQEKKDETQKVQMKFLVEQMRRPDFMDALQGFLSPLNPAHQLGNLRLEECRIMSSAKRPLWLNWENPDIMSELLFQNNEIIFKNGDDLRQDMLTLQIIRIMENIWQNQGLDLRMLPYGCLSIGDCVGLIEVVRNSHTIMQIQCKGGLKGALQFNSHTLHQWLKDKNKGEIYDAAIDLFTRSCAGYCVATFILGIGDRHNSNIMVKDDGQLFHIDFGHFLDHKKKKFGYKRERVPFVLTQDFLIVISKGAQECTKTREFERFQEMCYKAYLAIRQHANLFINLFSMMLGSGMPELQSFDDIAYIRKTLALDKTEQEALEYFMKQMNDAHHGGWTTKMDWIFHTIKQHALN
Chain of PI3Kα (P27986 whole entry partner): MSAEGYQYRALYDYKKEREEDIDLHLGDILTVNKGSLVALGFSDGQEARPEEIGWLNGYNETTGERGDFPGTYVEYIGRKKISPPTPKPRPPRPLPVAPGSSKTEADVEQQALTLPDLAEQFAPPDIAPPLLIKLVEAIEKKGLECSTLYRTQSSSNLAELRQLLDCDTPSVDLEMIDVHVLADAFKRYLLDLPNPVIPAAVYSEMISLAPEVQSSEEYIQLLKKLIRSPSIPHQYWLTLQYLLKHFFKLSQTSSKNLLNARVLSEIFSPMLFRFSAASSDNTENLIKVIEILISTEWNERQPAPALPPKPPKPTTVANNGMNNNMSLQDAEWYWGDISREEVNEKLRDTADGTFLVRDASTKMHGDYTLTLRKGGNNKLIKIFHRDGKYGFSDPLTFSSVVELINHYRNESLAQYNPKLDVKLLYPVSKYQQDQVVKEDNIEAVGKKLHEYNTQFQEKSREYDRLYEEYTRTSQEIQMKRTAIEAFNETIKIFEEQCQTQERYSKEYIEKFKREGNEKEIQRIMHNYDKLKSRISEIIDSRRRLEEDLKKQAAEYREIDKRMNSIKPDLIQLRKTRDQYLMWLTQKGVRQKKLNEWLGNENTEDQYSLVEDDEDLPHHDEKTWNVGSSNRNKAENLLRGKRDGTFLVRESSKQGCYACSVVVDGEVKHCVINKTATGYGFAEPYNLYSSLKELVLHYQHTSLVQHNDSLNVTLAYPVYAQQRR

Structure (SMILES): Cc1nc(NC(=O)N2CCC[C@H]2C(N)=O)sc1-c1ccnc(C(C)(C)C(F)(F)F)c1 [BYL719, reference compound]
growth of KYSE 410 xenograft (in words) ([1]; 50 mg/kg p.o. every day for 3 weeks): significantly slowed down
Relative tumor proliferation rate T/C ([1]; d0): 100.00%
Relative tumor proliferation rate T/C ([1]; d3): 56.95%
Relative tumor proliferation rate T/C ([1]; d7): 31.23%
Relative tumor proliferation rate T/C ([1]; d10): 24.77%
Relative tumor proliferation rate T/C ([1]; d14): 22.12%
Relative tumor proliferation rate T/C ([1]; d17): 19.32%
Relative tumor proliferation rate T/C ([1]; d21): 15.37%
GI50 (KYSE30; [3]): 10000 nM
GI50 (KYSE30; [4]): 6830 nM
GI50 (KYSE30; [5]): 10000 nM
GI50 (KYSE30; [6]): 8940 nM
GI50 (KYSE140; [7]): 2450 nM
GI50 (KYSE140; [8]): 3610 nM
GI50 (KYSE140; [9]): 2740 nM
GI50 (KYSE140; [10]): 2930 nM
GI50 (KYSE450; [11]): 8590 nM
GI50 (KYSE450; [12]): 10000 nM
GI50 (KYSE450; [13]): 8800 nM
GI50 (KYSE450; [14]): 9130 nM
GI50 (COLO680N; 1st experiment): 6120 nM
GI50 (COLO680N; 2nd experiment): 6050 nM
GI50 (COLO680N; 3rd experiment): 6100 nM
GI50 (COLO680N; mean of three experiments): 6090 nM
GI50 (KYSE150; [15]): 1640 nM
GI50 (KYSE150; [16]): 2110 nM
GI50 (KYSE150; [17]): 1670 nM
GI50 (KYSE150; [18]): 1810 nM
GI50 (Detroit 562; [19]): 1970 nM
GI50 (Detroit 562; [20]): 2300 nM
GI50 (Detroit 562; [21]): 2380 nM
GI50 (Detroit 562; [22]): 2220 nM
GI50 (KYSE180; [23]): 354 nM
GI50 (KYSE180; [24]): 740 nM
GI50 (KYSE180; [25]): 553 nM
GI50 (KYSE180; [26]): 549 nM
GI50 (KYSE410; [27]): 1890 nM
GI50 (KYSE410; [28]): 816 nM
GI50 (KYSE410; [29]): 874 nM
GI50 (KYSE410; [30]): 1190 nM
GI50 (KYSE510; [31]): 1530 nM
GI50 (KYSE510; [32]): 835 nM
GI50 (KYSE510; [33]): 1030 nM
GI50 (KYSE510; [34]): 1130 nM
GI50 (KYSE70; [35]): 452 nM
GI50 (KYSE70; [36]): 450 nM
GI50 (KYSE70; [37]): 478 nM
GI50 (KYSE70; [38]): 460 nM
GI50 (KYSE2; KYSE2, 1st experiment): 1440 nM
GI50 (KYSE2; KYSE2, 2nd experiment): 911 nM
GI50 (KYSE2; KYSE2, 3rd experiment): 1870 nM
GI50 (KYSE2; [39]): 1410 nM

Structure (SMILES): CN1CCN(C(=O)c2ccc(NC(=O)Nc3ccc(-c4nc(N5CCOCC5)c5cc(CN6CCN(S(C)(=O)=O)CC6)cn5n4)cc3)cc2)CC1 [Compound I-22, 1-(4-(4-methylpiperazine-carbonyl)phenyl)-3-(4-(6-((4-(methylsulfonyl)piperazin-1-yl)methy 1)-4-morpholinopyrrolo[2,1-f][1,2,4]triazin-2-yl)phenyl)urea]
IC50 [2]: 540 nM
IC50 (PI3Kα): 9.59 nM

Structure (SMILES): CS(=O)(=O)N1CCN(Cc2cc3c(N4CCOCC4)nc(-c4cnc(NC(=O)Nc5ccc(F)cc5)cc4C(F)(F)F)nn3c2)CC1 [Compound I-28, 1-(4-fluorophenyl)-3-(5-(6-((4-(methylsulfonyl)piperazin-1-yl)methyl)-4-morpholinopyrrolo[2,1-f][1,2,4]triazin-2-yl)-4-(trifluoromethyl)pyridin-2-yl)urea]
inhibitory activity on Rh30 cell proliferation (in words) ([2]; 72 h): tens of nanomolar
IC50 [2]: 74 nM
IC50 (PI3Kα): 9.3 nM

Structure (SMILES): COC(=O)Nc1cc(C(F)(F)F)c(-c2nc(N3CCOC[C@@H]3C)c3cc(CN4CCN(S(C)(=O)=O)CC4)cn3n2)cn1 [Compound I-35, (S)-methyl (5-(4-(3-methylmorpholino)-6-((4-(methylsulfonyl)piperazin-1-yl)methyl)pyrrolo[2,1-f][1,2,4]triazin-2-yl)-4-(trifluoromethyl)pyridin-2-yl)carbamate]
IC50 [2]: 470 nM
IC50 (PI3Kα): 5.67 nM

Further lines, results first:

IC50 [2]: 730 nM
GI50 (KYSE30; [3]): 2350 nM
GI50 (KYSE30; [4]): 1100 nM
GI50 (KYSE30; [5]): 1070 nM
GI50 (KYSE30; [6]): 1510 nM
GI50 (KYSE140; [7]): 898 nM
GI50 (KYSE140; [8]): 638 nM
GI50 (KYSE140; [9]): 792 nM
GI50 (KYSE140; [10]): 776 nM
GI50 (KYSE450; [11]): 1230 nM
GI50 (KYSE450; [12]): 1000 nM
GI50 (KYSE450; [13]): 932 nM
GI50 (KYSE450; [14]): 1050 nM
GI50 (COLO680N; 1st experiment): 959 nM
GI50 (COLO680N; 2nd experiment): 915 nM
GI50 (COLO680N; 3rd experiment): 917 nM
GI50 (COLO680N; mean of three experiments): 930 nM
GI50 (KYSE150; [15]): 202 nM
GI50 (KYSE150; [16]): 276 nM
GI50 (KYSE150; [17]): 150 nM
GI50 (KYSE150; [18]): 209 nM
GI50 (Detroit 562; [19]): 580 nM
GI50 (Detroit 562; [20]): 527 nM
GI50 (Detroit 562; [21]): 607 nM
GI50 (Detroit 562; [22]): 571 nM
GI50 (KYSE180; [23]): 100 nM
GI50 (KYSE180; [24]): 169 nM
GI50 (KYSE180; [25]): 77 nM
GI50 (KYSE180; [26]): 115 nM
GI50 (KYSE410; [27]): 468 nM
GI50 (KYSE410; [28]): 959 nM
GI50 (KYSE410; [29]): 229 nM
GI50 (KYSE410; [30]): 552 nM
GI50 (KYSE510; [31]): 247 nM
GI50 (KYSE510; [32]): 390 nM
GI50 (KYSE510; [33]): 204 nM
GI50 (KYSE510; [34]): 280 nM
GI50 (KYSE70; [35]): 109 nM
GI50 (KYSE70; [36]): 59 nM
GI50 (KYSE70; [37]): 112 nM
GI50 (KYSE70; [38]): 93 nM
GI50 (KYSE2; KYSE2, 1st experiment): 255 nM
GI50 (KYSE2; KYSE2, 2nd experiment): 165 nM
GI50 (KYSE2; KYSE2, 3rd experiment): 310 nM
GI50 (KYSE2; [39]): 243 nM
IC50 (PI3Kα): 8.37 nM
Structure (SMILES): CS(=O)(=O)N1CCN(Cc2cc3c(N4CCOCC4)nc(-c4cnc(N)cc4C(F)(F)F)nn3c2)CC1 [Compound I-27, 5-(6-((4-(methylsulfonyl)piperazin-1-yl)methyl)-4-morpholinopyrrolo [2,1-f][1,2,4]triazin-2-yl)-4-(trifluoromethyl)pyridin-2-amine]

IC50 (PI3Kα): 7.15 nM
Structure (SMILES): CCOC(=O)Nc1cc(C(F)(F)F)c(-c2nc(N3CCOCC3)c3cc(CN4CCN(S(C)(=O)=O)CC4)cn3n2)cn1 [Compound I-32, Ethyl (5-(6-((4-(methylsulfonyl)piperazin-1-yl)methyl)-4-morpholinopyrrolo[2,1-f-][1,2,4]triazin-2-yl)-4-(trifluoromethyl)pyridin-2-yl)carbamate]
